Patent US7666454B2, “Cosmetic composition comprising an essential oil extracted from Helichrysum italicum” (L'Occitane, priority 2001, dated 2010)

Test system: human endothelial cells in co-culture (AngioKit)
Assay: AngioKit in vitro angiogenesis model (tubule formation, CD31 staining, image analysis)
Assay type: cell-based
Experimental: The in vitro model we used was the AngioKit (Biopredic—ref ZHA-1000—lot no. 25173T) which approaches a more global vision of angiogenesis. In this model, human endothelial cells are seeded in a specific medium in co-culture with another type of human cells. In the initial phase, the endothelial cells form small islets. They begin to proliferate and then enter into a migration phase which leads to formation of structures of filamentous tubule form in the matrix. At the end of 10 to 12 days, the connections established form a network of anastomosed tubules. The staining of the tubules is obtained by specific marking of the antigen of surface antigen CD31 (PECAM-1), which is expressed by the endothelial cells.
The test is validated by staining the tubules and verification of the inhibitory and activating action of two pharmacological compounds known to act on angiogenesis. The action on angiogenesis of the active ingredients tested was evaluated by quantitative image analysis.
The cells were cultured in 24-well plates in an incubator at 37° C. under a humid atmosphere containing 5% CO2.
The specific culture medium was eliminated and the cells were placed under different experimental conditions:
Negative control: suramin, agent inhibiting formation of tubules—final concentration: 20 μM;
Positive control: VEGF, activating agent of angiogenesis—final concentration: 2 ng/ml;
Composition for the face: Since this composition of essential oils is not miscible in the culture medium, it was dissolved in absolute ethanol and tested at three concentrations (the non-cytotoxic character of which had been verified in advance by 24-hour contact with normal human fibroblasts): 0.005%-0.01%-0.05% (v/v); and
Solvent control: since ethanol could have effects on angiogenesis, it was tested at the final concentration required for dissolving the essential oils composition: 0.1% (v/v).
Each condition was implemented in duplicate. Microscopic observation of the cells was performed daily to monitor formation of tubules as shown in the photograph of FIG. 2.
The media were eliminated and the conditions were renewed on the 3rd, 6th and 9th day of the experiment. On the 10th day, the cells were fixed and stained: after rinsing in the PBS buffer, the cells were fixed in a 70% ethanol solution cooled at −20° C. for 30 minutes. The cells were then incubated for 1 hour at 37° C. with the human anti-CD-31 ZIS-3090 antibody (TCS CellWorks). […]
Evaluation of the angiogenic power of the compound tested was quantified by image analysis (Olympus IX70 Auto Analysis System) by measuring the length of the tubules developed (in μm) and the number of junctions established within the anastomosed network. […]

Row | Compound | inhibition at 20 µM (Homo sapiens, Endothelial cell, 240 h, read-out: inhibition of the length of the tubular network compared to the control) [%] | number of junctions diminished by a factor compared to the control (suramin 20 μM, day 10) | number of junctions augmented by a factor compared to the control (VEGF 2 ng/ml, day 10) | stimulator effect on the length of the tubular network compared to the control (VEGF 2 ng/ml, day 10) [%]
1 | Cc1ccc(C(=O)Nc2ccc(S(=O)(=O)O)c3cc(S(=O)(=O)O)cc(S(=O)(=O)O)c23)cc1NC(=O)c1cccc(NC(=O)Nc2cccc(C(=O)Nc3cc(C(=O)Nc4ccc(S(=O)(=O)O)c5cc(S(=O)(=O)O)cc(S(=O)(=O)O)c45)ccc3C)c2)c1 [suramin] | 49 | 5.7 | – | –
2 | VEGF | – | – | 1.7 | 54
